Laboratory results published in paper PMC5285354, “Cationic Net Charge and Counter Ion Type as Antimicrobial Activity Determinant Factors of Short Lipopeptides” (Frontiers in Microbiology, 2017).
Converted amounts (≈) assume the structure as drawn. Where a SMILES comes first, the peptide text is derived from it. The star is where a group is joined. Palmitoyl = CCCCCCCCCCCCCCCC(=O)*; Myristoyl = CCCCCCCCCCCCCC(=O)*

Tests used:
Format in all cases: cell-based
[1] = test system: Aspergillus brasiliensis (ATCC 16404); settings: ATCC 16404, 48 h
Procedure, shortened: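 CLSI broth microdilution: bacteria in Mueller-Hinton broth at 10^5 cfu/mL inoculum, 18 h at 37°C; fungi in Sabouraud Dextrose broth at 10^3 cfu/mL, 48 h at 25°C. MIC (μg/mL) is the lowest lipopeptide concentration inhibiting visible growth; triplicate on three days.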

[2] = test system: Bacillus subtilis (ATCC 6633); settings: for MIC Bacillus subtillis: ATCC 6633, 18 h; for MBC Bacillus subtillis: ATCC 6633, 24 h
Procedure, shortened: (§1)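 Lowest lipopeptide concentration (μg/mL) with no observable growth gave the MIC, alongside MBC/MFC, by CLSI microbroth dilution. Fungi: Sabouraud dextrose broth, 10^3 cfu/mL start, 25°C for 48 h; bacteria: MH broth, 10^5 cfu/mL, 37°C for 18 h. Run in triplicate, three separate days.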

[3] = test system: Candida albicans (ATCC 10231); settings: ATCC 10231, 48 h
Procedure, shortened: as §1

[4] = test system: Candida tropicalis (PCM 2681); settings: PCM 2681, 48 h
Procedure, shortened: as §1

[5] = test system: Enterococcus faecalis (ATCC 29212); settings: for MBC Enterococcus fecalis, lipopeptides without TFA counter ion / MIC Enterococcus fecalis / MIC Enterococcus fecalis, lipopeptides without TFA counter ion: ATCC 29212, 18 h; for MBC Enterococcus fecalis: ATCC 29212, 24 h
Procedure, shortened: as §1

[6] = test system: Escherichia coli (ATCC 25922); settings: for MBC Escherichia coli, lipopeptides without TFA counter ion / MIC Escherichia coli / MIC Escherichia coli, lipopeptides without TFA counter ion: ATCC 25922, 18 h; for MBC Escherichia coli: ATCC 25922, 24 h
Procedure, shortened: as §1

[7] = test system: Klebsiella pneumoniae (ATCC 700603); settings: for MBC Klebsiella pneumoniae, lipopeptides without TFA counter ion / MIC Klebsiella pneumoniae / MIC Klebsiella pneumoniae, lipopeptides without TFA counter ion: ATCC 700603, 18 h; for MBC Klebsiella pneumoniae: ATCC 700603, 24 h
Procedure, shortened: as §1

[8] = test system: Proteus vulgaris (PCM 2668); settings: 18 h
Procedure, shortened: as §1

[9] = test system: Pseudomonas aeruginosa (ATCC 9027); settings: ATCC 9027, 18 h
Procedure, shortened: as §1

[10] = test system: Staphylococcus aureus (ATCC 25923); settings: for MBC Staphylococcus aureus, lipopeptides without TFA counter ion / MIC Staphylococcus aureus / MIC Staphylococcus aureus, lipopeptides without TFA counter ion: ATCC 25923, 18 h; for MBC Staphylococcus aureus: ATCC 25923, 24 h
Procedure, shortened: as §1

[11] = test system: Staphylococcus epidermidis (PCM 2118); settings: for MIC Staphylococcus epidermidis: PCM 2118, 18 h; for MBC Staphylococcus epidermidis: PCM 2118, 24 h
Procedure, shortened: as §1

[12] = test system: human red blood cells; settings: 1 h
Procedure, shortened: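 Washed donor erythrocytes (4% v/v in PBS, EDTA-anticoagulated) incubated with graded lipopeptide concentrations for 1 h at 37 °C; hemoglobin release read at 550 nm in supernatants. Scaled between 0.1% Triton X-100 (100%) and PBS (0%); MHC is the lowest concentration giving 10% hemolysis.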

[13] = test system: Pseudomonas aeruginosa (ATCC 9027); settings: ATCC 9027, 24 h
[14] = test system: Proteus vulgaris (PCM 2668); settings: 24 h
[15] = test system: Candida albicans (ATCC 10231)

Row | SMILES | MFC Aspergillus brasiliensis [1] [µg/mL] | MIC Aspergillus brasiliensis [1] [µg/mL] | MIC Bacillus subtillis [2] [µg/mL] | MBC Bacillus subtillis [2] [µg/mL] | MFC Candida albicans [3] [µg/mL] | MIC Candida albicans [3] [µg/mL] | MIC Candida albicans, lipopeptides without TFA counter ion [3] [µg/mL] | MFC Candida tropicalis [4] [µg/mL] | MIC Candida tropicalis [4] [µg/mL] | MBC Enterococcus fecalis, lipopeptides without TFA counter ion [5] [µg/mL] | MIC Enterococcus fecalis [5] [µg/mL] | MIC Enterococcus fecalis, lipopeptides without TFA counter ion [5] [µg/mL] | MBC Enterococcus fecalis [5] [µg/mL] | MBC Escherichia coli, lipopeptides without TFA counter ion [6] [µg/mL] | MIC Escherichia coli [6] [µg/mL] | MIC Escherichia coli, lipopeptides without TFA counter ion [6] [µg/mL] | MBC Escherichia coli [6] [µg/mL] | MBC Klebsiella pneumoniae, lipopeptides without TFA counter ion [7] [µg/mL] | MIC Klebsiella pneumoniae [7] [µg/mL] | MIC Klebsiella pneumoniae, lipopeptides without TFA counter ion [7] [µg/mL] | other results
1 | CCCCCCCCCCCCCCCC(=O)N[C@@H](CCCCN)C(=O)NCC(N)=O [C16-KG-NH2] (Palmitoyl-Lys-Gly-NH2) | 512 (≈ 1160 µM) | 512 (≈ 1160 µM) | 4 (≈ 9.08 µM) | 4 (≈ 9.08 µM) | 128 (≈ 290 µM) | 128 (≈ 290 µM) | 128 (≈ 290 µM) | 512 (≈ 1160 µM) | 256 (≈ 581 µM) | 8 (≈ 18.2 µM) | 16 (≈ 36.3 µM) | 4 (≈ 9.08 µM) | 16 (≈ 36.3 µM) | 256 (≈ 581 µM) | 256 (≈ 581 µM) | 256 (≈ 581 µM) | 256 (≈ 581 µM) | 256 (≈ 581 µM) | 128 (≈ 290 µM) | 128 (≈ 290 µM) | MBC Klebsiella pneumoniae [7]: 256 µg/mL (≈ 581 µM); MIC Proteus vulgaris [8]: >512 µg/mL; MIC Pseudomonas aeruginosa [9]: 256 µg/mL (≈ 581 µM); MBC Staphylococcus aureus, lipopeptides without TFA counter ion [10]: 4 µg/mL (≈ 9.08 µM); MIC Staphylococcus aureus [10]: 8 µg/mL (≈ 18.2 µM); MIC Staphylococcus aureus, lipopeptides without TFA counter ion [10]: 4 µg/mL (≈ 9.08 µM); MBC Staphylococcus aureus [10]: 8 µg/mL (≈ 18.2 µM); MIC Staphylococcus epidermidis [11]: 4 µg/mL (≈ 9.08 µM); MBC Staphylococcus epidermidis [11]: 4 µg/mL (≈ 9.08 µM); Hemolysis HC10 (MHC), concentration of lipopeptide inducing 10% of hemolysis [12]: 256 µg/mL; MBC Pseudomonas aeruginosa [13]: 1000 µg/mL (≈ 2270 µM); MBC Proteus vulgaris [14]: >512 µg/mL; MFC Candida albicans, lipopeptides without TFA counter ion [15]: 128 µg/mL (≈ 290 µM)
2 | CCCCCCCCCCCCCCCC(=O)N[C@@H](CCCCN)C(=O)NCC(=O)N[C@@H](CCCCN)C(=O)NCC(N)=O [C16-KGKG-NH2] (Palmitoyl-KGKG-NH2) | 128 (≈ 205 µM) | 128 (≈ 205 µM) | 4 (≈ 6.39 µM) | 4 (≈ 6.39 µM) | 128 (≈ 205 µM) | 128 (≈ 205 µM) | 128 (≈ 205 µM) | 256 (≈ 409 µM) | 256 (≈ 409 µM) | 16 (≈ 25.6 µM) | 16 (≈ 25.6 µM) | 16 (≈ 25.6 µM) | 16 (≈ 25.6 µM) | 8 (≈ 12.8 µM) | 16 (≈ 25.6 µM) | 8 (≈ 12.8 µM) | 16 (≈ 25.6 µM) | 32 (≈ 51.1 µM) | 16 (≈ 25.6 µM) | 16 (≈ 25.6 µM) | MBC Klebsiella pneumoniae [7]: 16 µg/mL (≈ 25.6 µM); MIC Proteus vulgaris [8]: >512 µg/mL; MIC Pseudomonas aeruginosa [9]: 8 µg/mL (≈ 12.8 µM); MBC Staphylococcus aureus, lipopeptides without TFA counter ion [10]: 16 µg/mL (≈ 25.6 µM); MIC Staphylococcus aureus [10]: 16 µg/mL (≈ 25.6 µM); MIC Staphylococcus aureus, lipopeptides without TFA counter ion [10]: 8 µg/mL (≈ 12.8 µM); MBC Staphylococcus aureus [10]: 32 µg/mL (≈ 51.1 µM); MIC Staphylococcus epidermidis [11]: 4 µg/mL (≈ 6.39 µM); MBC Staphylococcus epidermidis [11]: 4 µg/mL (≈ 6.39 µM); Hemolysis HC10 (MHC), concentration of lipopeptide inducing 10% of hemolysis [12]: 64 µg/mL; MBC Pseudomonas aeruginosa [13]: 8 µg/mL (≈ 12.8 µM); MBC Proteus vulgaris [14]: >512 µg/mL; MFC Candida albicans, lipopeptides without TFA counter ion [15]: 128 µg/mL (≈ 205 µM)
3 | CCCCCCCCCCCCCC(=O)N[C@@H](CCCCN)C(=O)NCC(=O)N[C@@H](CCCCN)C(N)=O [C14-KGK-NH2] (Myristoyl-Lys-Gly-Lys-NH2) | 128 (≈ 237 µM) | 128 (≈ 237 µM) | 8 (≈ 14.8 µM) | 8 (≈ 14.8 µM) | 128 (≈ 237 µM) | 128 (≈ 237 µM) | 128 (≈ 237 µM) | 256 (≈ 473 µM) | 256 (≈ 473 µM) | 64 (≈ 118 µM) | 64 (≈ 118 µM) | 64 (≈ 118 µM) | 64 (≈ 118 µM) | 128 (≈ 237 µM) | 128 (≈ 237 µM) | 128 (≈ 237 µM) | 128 (≈ 237 µM) | 64 (≈ 118 µM) | 64 (≈ 118 µM) | 64 (≈ 118 µM) | MBC Klebsiella pneumoniae [7]: 64 µg/mL (≈ 118 µM); MIC Proteus vulgaris [8]: >512 µg/mL; MIC Pseudomonas aeruginosa [9]: 32 µg/mL (≈ 59.2 µM); MBC Staphylococcus aureus, lipopeptides without TFA counter ion [10]: 64 µg/mL (≈ 118 µM); MIC Staphylococcus aureus [10]: 64 µg/mL (≈ 118 µM); MIC Staphylococcus aureus, lipopeptides without TFA counter ion [10]: 64 µg/mL (≈ 118 µM); MBC Staphylococcus aureus [10]: 128 µg/mL (≈ 237 µM); MIC Staphylococcus epidermidis [11]: 16 µg/mL (≈ 29.6 µM); MBC Staphylococcus epidermidis [11]: 16 µg/mL (≈ 29.6 µM); Hemolysis HC10 (MHC), concentration of lipopeptide inducing 10% of hemolysis [12]: 128 µg/mL; MBC Pseudomonas aeruginosa [13]: 64 µg/mL (≈ 118 µM); MBC Proteus vulgaris [14]: >512 µg/mL; MFC Candida albicans, lipopeptides without TFA counter ion [15]: 128 µg/mL (≈ 237 µM)
